Measurements as given in patent publication US8008506B2, “Indazole compounds” (priority 2008, dated 2011).
Values after ≈ are worked out from the molar mass of the structure shown.

What was measured:
[1] = Test Example 12: solubility in physiological saline; format: physicochemical; settings: saline or isotonic, thermodynamic from solid, 37° C., one hour, 1 mg/mL nominal
Protocol: A test compound is precisely weighed to 500 μg, and a hydrochloric acid buffer solution at pH 1.2 is added thereto to a concentration of 1 mg/mL. The solution is shaken at 37° C. for one hour. After the shaking, the entire amount of the solution is transferred into a filter tube, and the solution is filtered by centrifugation. The filtrate is analyzed by HPLC, and the solubility of the test compound is determined by dividing the peak area value of the filtrate by the peak area value of the standard solution.
Test on Solubility in Physiological Saline
The solubility of a test compound is determined by performing the same test as that performed in Test Example 11, except that the hydrochloric acid buffer solution at pH 1.2 is changed to physiological saline.

[2] = Test Example 10: saturation solubility in pure water; format: physicochemical; settings: thermodynamic from solid, room temperature, shaken one hour
Protocol: Saturation Solubility in Pure Water
A test compound is prepared in pure water to be in the saturated state. This solution is shaken for one hour at room temperature. After the shaking, the entire amount of the solution is transferred into a filter tube, and the solution is filtered by centrifugation. The filtrate is analyzed by HPLC, and the saturation solubility of the test compound is determined using a calibration curve, based on the peak area value.
A standard solution is prepared by precisely weighing each test compound, and preparing a solution that sufficiently dissolves in pure water. The calibration curve is produced by assigning the concentration of the standard solution to the horizontal axis, and assigning the HPLC area peak at the concentration to the vertical axis.
YMC-Pack C18 (4.6 mm×150 mm) (manufactured by YMC Co., Ltd.) is used as a separating column. The detection is performed with UV-254 nm. Elution is carried out at a flow rate of 1 ml/min, using solution A=water [containing 0.1% (v/v) acetic acid] and solution B=acetonitrile as the solvents, under the conditions in which a linear gradient of the solution B is run from 5 to 98% (v/v) from zero minute to 20 minute, subsequently solution B is eluted at 98% up to 25 minute, and the solution B is eluted at 5% from 25.01 minute to 35 minute.

Compound | solubility at 1 h [1] [mg/mL] | solubility at 1 h [2] [mg/mL]
CC(C)c1n[nH]c2cc(OCCNC[C@H](O)c3cccc(NS(C)(=O)=O)c3)ccc12 [Example 1, (R)-N-(3-(1-hydroxy-2-(2-(3-isopropylindazol-6-yloxy)ethylamino)ethyl)phenyl)methanesulfonamide] | ≥ 1 | 
CCc1n[nH]c2cc(OCCNC[C@H](O)c3cccc(NS(C)(=O)=O)c3)ccc12 [Example 2, (R)-N-(3-(1-hydroxy-2-(2-(3-ethylindazol-6-yloxy)ethylamino)ethyl)phenyl)methanesulfonamide] | ≥ 1 | 204 (≈ 487 mM)
CCCc1n[nH]c2cc(OCCNC[C@H](O)c3cccc(NS(C)(=O)=O)c3)ccc12 [Example 3, (R)-N-(3-(1-hydroxy-2-(2-(3-propylindazol-6-yloxy)ethylamino)ethyl)phenyl)methanesulfonamide] |  | 50 (≈ 116 mM)
CS(=O)(=O)Nc1cccc([C@@H](O)CNCCOc2ccc3c(C(F)(F)F)n[nH]c3c2)c1 [Example 4, (R)-N-(3-(1-hydroxy-2-(2-(3-trifluoromethylindazol-6-yloxy)ethylamino)ethyl)phenyl)methanesulfonamide] | 0.932 (≈ 2.03 mM) | 71 (≈ 155 mM)
CN(C)C(=O)CCc1n[nH]c2cc(OCCNC[C@H](O)c3cccc(NS(C)(=O)=O)c3)ccc12 [Example 5, (R)-3-(6-(2-(2-hydroxy-2-(3-(methylsulfonamido)phenyl)ethylamino)ethoxy)-indazol-3-yl)-N,N-dimethylpropanamide] | ≥ 1 | 491 (≈ 1000 mM)
COCc1n[nH]c2cc(OCCNC[C@H](O)c3cccc(NS(C)(=O)=O)c3)ccc12 [Example 6, (R)-N-(3-(1-hydroxy-2-(2-(3-methoxymethylindazol-6-yloxy)ethylamino)ethyl)phenyl)methanesulfonamide] | 0.993 (≈ 2.29 mM) | 
